{"source": "paper PMC8151276", "about": "“An Integrated Approach toward NanoBRET Tracers for Analysis of GPCR Ligand Engagement” (Molecules, 2021)", "assay_type_in_all_cases": "binding", "key": {"ADORA1": {"biological_target": "T1, ADORA1 (Homo sapiens, UniProt P30542)", "T1 construct": "purchased Promega (in-house HiBiT-GPCR construct library, NanoBRET)", "T1 sequence (P30542 1-326)": "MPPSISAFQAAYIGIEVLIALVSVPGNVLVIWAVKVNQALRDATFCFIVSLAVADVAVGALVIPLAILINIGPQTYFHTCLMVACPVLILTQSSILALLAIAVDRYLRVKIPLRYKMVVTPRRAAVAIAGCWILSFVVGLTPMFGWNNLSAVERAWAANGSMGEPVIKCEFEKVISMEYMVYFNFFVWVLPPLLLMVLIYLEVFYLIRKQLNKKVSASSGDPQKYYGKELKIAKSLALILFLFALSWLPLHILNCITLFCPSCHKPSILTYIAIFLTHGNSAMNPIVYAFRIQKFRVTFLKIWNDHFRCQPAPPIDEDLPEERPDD", "assay": "NanoBRET screen HiBiT-ADORA1 in HEK293", "conditions": "ADORA1", "protocol": "(§1) Each tracer candidate was screened across the entire library of HiBiT-GPCR constructs using NanoBRET as the detection modality. As depicted in Figure 4A, the specificity of interactions was evaluated through decrease in BRET due to competitive displacement of a bound tracer by excess parental compound. Each tracer was analyzed for binding to each HiBiT-GPCR fusion in the absence and in the presence of competing parental compound. Briefly, HEK293 cells were transfected with HiBiT-GPCR constructs diluted into promoterless DNA to reduce expression and maximize translocation to the cell surface. Each tracer candidate was then screened at concentrations of 1 μM and 0.1 μM across cells expressing these fusions. Cells were treated for 1.5 h with tracer either alone or in the presence of 20 μM competing parental compound (i.e., control). BRET was measured upon addition of purified LgBiT and subsequent complementation with HiBiT genetically fused to a GPCR. The specificity of interactions was assessed through a decrease in BRET signal due to competitive displacement of the bound tracer. To further gauge the robustness of these interactions, the fold response over the control (i.e., BRETtracer/BRETcontrol) was calculated. We chose a 1.5-fold response, which translates to ≥7-fold signal over noise as the minimal threshold required to score an interaction as positive. […]. Below we highlight the screening results obtained for our exemplary fluorescent tracers based on Clozapine, Amitriptyline and AZD1283.\n(§2) HiBiT-GPCR DNA constructs were diluted in 10 mM Tris pH 8 to a final concentration of 0.01 μg/μL, arrayed in 96-well plates and stored at −20 °C. For transfection, HEK293 cells were suspended in Opti-MEM (without phenol red) supplemented with 2% fetal bovine serum (Seradigm) and 100 units/mL penicillin–streptomycin (Gibco) at a final concentration of 220,000 cells/mL and dispensed into white 96-well plates at 90 μL/well. Subsequent transfections and screens were carried using an Agilent Bravo Automated Liquid Handling Platform. First, the 96-well HiBiT DNA arrays were diluted 25-fold in Opti-MEM (without serum or phenol red) to a final concentration of 0.0004 μg/μL and 20 μL of the diluted DNAs were transferred into new 96-well plates. Next, promoterless carrier DNA (1 μg/μL) was diluted 25-fold (0.04 μg/μL) and then dispensed into the diluted arrays at 20 μL/well. Following brief mixing, Viafect transfection reagent (Promega) diluted 16-fold into Opti-MEM was dispensed into the plates at 40 μL/well. After mixing by pipetting, plates were incubated for 10 min on the pipetting station deck. The DNA-transfection reagent complexes were then added to plates containing cells. To facilitate the screen, 10 μL of DNA-transfection reagent complexes were added in duplicates to the top 4 and bottom 4 rows, resulting in two identical 48-well arrays per plate. Plates with transfected cells were incubated for 18–20 h at 37 °C/5% CO2. A screen of each tracer across the entire library using two different concentrations requires duplicate plates of transfected cells. Depending on the number of tracers being screened, transfections can be scaled up using the same ratios. The next day, for each tracer, four 20× screening solutions in tracer dilution buffer (Promega) were prepared: two duplicates at final concentration of 20 μM and two duplicates at a final concentration of 2 μM. A competing unmodified compound was added to one of each duplicate at a final concentration of 400 μM. The four resulting solutions were diluted 4-fold in Opti-MEM without serum or phenol red to generate 5× solutions (5 µM and 0.5 µM tracer +/− 100 μM competing compound). To screen the library, a BioTek MultiFlo FX liquid dispenser was used to dispense 22.5 µL of tracer solution to the top 4 rows and 22.5 µL tracer + competing compound solution to the 4 bottom rows. Plates were briefly mixed on an orbital shaker and incubated for 1.5 h at room temperature. […]"}, "ADORA2B": {"biological_target": "T2, ADORA2B (Homo sapiens, UniProt P29275)", "T2 construct": "purchased Promega (in-house HiBiT-GPCR construct library, NanoBRET)", "T2 sequence (P29275 1-332)": "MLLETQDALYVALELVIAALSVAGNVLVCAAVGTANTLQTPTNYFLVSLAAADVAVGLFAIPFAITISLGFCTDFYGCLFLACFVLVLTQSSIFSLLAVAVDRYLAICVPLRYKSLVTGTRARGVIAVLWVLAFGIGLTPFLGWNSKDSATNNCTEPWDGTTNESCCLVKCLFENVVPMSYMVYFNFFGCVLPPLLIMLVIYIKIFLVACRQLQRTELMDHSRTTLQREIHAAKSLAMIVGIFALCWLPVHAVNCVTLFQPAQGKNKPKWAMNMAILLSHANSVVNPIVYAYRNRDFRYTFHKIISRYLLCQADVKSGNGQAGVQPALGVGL", "assay": "NanoBRET screen HiBiT-ADORA2B in HEK293", "conditions": "ADORA2B", "protocol": "as §1, §2"}, "PTGER3": {"biological_target": "T3, PTGER3 (Homo sapiens, UniProt P43115)", "T3 construct": "purchased Promega (in-house HiBiT-GPCR construct library, NanoBRET)", "T3 sequence (P43115 1-390)": "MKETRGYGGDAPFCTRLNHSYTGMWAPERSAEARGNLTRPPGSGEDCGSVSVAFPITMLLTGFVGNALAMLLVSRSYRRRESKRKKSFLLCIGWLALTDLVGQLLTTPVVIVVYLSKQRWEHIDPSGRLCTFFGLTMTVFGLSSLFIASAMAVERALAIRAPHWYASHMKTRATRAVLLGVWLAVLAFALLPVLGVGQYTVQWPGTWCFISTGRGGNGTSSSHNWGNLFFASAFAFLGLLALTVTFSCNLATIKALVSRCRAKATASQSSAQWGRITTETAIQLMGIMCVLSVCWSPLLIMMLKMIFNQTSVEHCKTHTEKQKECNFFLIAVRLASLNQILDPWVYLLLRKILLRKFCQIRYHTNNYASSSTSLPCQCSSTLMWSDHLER", "assay": "NanoBRET screen HiBiT-PTGER3 in HEK293", "conditions": "PTGER3", "protocol": "as §1, §2"}}}
{"molecule": "O=C(CCc1ccc2n1[B-](F)(F)[N+]1=C(c3ccc[nH]3)C=CC1=C2)NCc1ccc(C(=O)NCCOCCC(=O)N[C@@H]2CC[C@@]3(O)[C@H]4Cc5ccc(O)c6c5[C@@]3(CCN4CC3CC3)[C@H]2O6)cc1", "note": "[Naltrexone-3-NB590]", "values": [{"measurement": "NanoBRET Fold Response", "setting": "ADORA1; tracer 0.1μM", "value": 0.84}, {"measurement": "NanoBRET Fold Response", "setting": "ADORA1; tracer 1μM", "value": 1.23}, {"measurement": "NanoBRET Fold Response", "setting": "ADORA2B; tracer 0.1μM", "value": 0.20}, {"measurement": "NanoBRET Fold Response", "setting": "ADORA2B; tracer 1μM", "value": 0.77}, {"measurement": "NanoBRET Fold Response", "setting": "PTGER3; tracer 0.1μM", "value": 0.94}, {"measurement": "NanoBRET Fold Response", "setting": "PTGER3; tracer 1μM", "value": 0.79}]}
{"molecule": "Cc1cc2c(s1)Nc1ccccc1N=C2N1CCN(CCCNC(=O)CCOCCOCCOCCOCCNC(=O)CCc2ccc3n2[B-](F)(F)[N+]2=C(c4ccc[nH]4)C=CC2=C3)CC1", "note": "[Olanzapine-a-2-NB590]", "values": [{"measurement": "NanoBRET Fold Response", "setting": "ADORA1; tracer 0.1μM", "value": 1.09}, {"measurement": "NanoBRET Fold Response", "setting": "ADORA1; tracer 1μM", "value": 1.22}, {"measurement": "NanoBRET Fold Response", "setting": "ADORA2B; tracer 0.1μM", "value": 0.92}, {"measurement": "NanoBRET Fold Response", "setting": "ADORA2B; tracer 1μM", "value": 1.04}, {"measurement": "NanoBRET Fold Response", "setting": "PTGER3; tracer 0.1μM", "value": 1.00}, {"measurement": "NanoBRET Fold Response", "setting": "PTGER3; tracer 1μM", "value": 0.95}]}
{"molecule": "O=C(CCc1ccc2n1[B-](F)(F)[N+]1=C(c3ccc[nH]3)C=CC1=C2)NCc1ccc(C(=O)NCCOCCOCCNCC(O)COc2cccc3ccccc23)cc1", "note": "(stereo not drawn) [Propranolol-3-NB590]", "values": [{"measurement": "NanoBRET Fold Response", "setting": "ADORA1; 0.1μM", "value": 0.98}, {"measurement": "NanoBRET Fold Response", "setting": "ADORA1; 1μM", "value": 0.98}, {"measurement": "NanoBRET Fold Response", "setting": "ADORA2B; 0.1μM", "value": 1.10}, {"measurement": "NanoBRET Fold Response", "setting": "ADORA2B; 1μM", "value": 0.95}, {"measurement": "NanoBRET Fold Response", "setting": "PTGER3; 0.1μM", "value": 1.04}, {"measurement": "NanoBRET Fold Response", "setting": "PTGER3; 1μM", "value": 1.08}]}
{"molecule": "O=C(CCc1ccc2n1[B-](F)(F)[N+]1=C(c3ccc[nH]3)C=CC1=C2)NCCOCCOCCNC(=O)OCCOCCN1CCN(C2=Nc3ccccc3Sc3ccccc32)CC1", "note": "[Quetiapine-a-2-NB590]", "values": [{"measurement": "NanoBRET Fold Response", "setting": "ADORA1; tracer 0.1μM", "value": 1.30}, {"measurement": "NanoBRET Fold Response", "setting": "ADORA1; tracer 1μM", "value": 1.07}, {"measurement": "NanoBRET Fold Response", "setting": "ADORA2B; tracer 0.1μM", "value": 0.80}, {"measurement": "NanoBRET Fold Response", "setting": "ADORA2B; tracer 1μM", "value": 1.02}, {"measurement": "NanoBRET Fold Response", "setting": "PTGER3; tracer 0.1μM", "value": 0.97}, {"measurement": "NanoBRET Fold Response", "setting": "PTGER3; tracer 1μM", "value": 1.04}]}
{"molecule": "Cc1nc2n(c(=O)c1CCN1CCC(c3noc4cc(F)ccc34)CC1)CCCC2OC(=O)NCCOCCOCCOCCOCCNC(=O)CCc1ccc2n1[B-](F)(F)[N+]1=C(c3ccc[nH]3)C=CC1=C2", "note": "(stereo not drawn) [Risperidone-2-NB590]", "values": [{"measurement": "NanoBRET Fold Response", "setting": "ADORA1; tracer 0.1μM", "value": 1.04}, {"measurement": "NanoBRET Fold Response", "setting": "ADORA1; tracer 1μM", "value": 1.05}, {"measurement": "NanoBRET Fold Response", "setting": "ADORA2B; tracer 0.1μM", "value": 0.94}, {"measurement": "NanoBRET Fold Response", "setting": "ADORA2B; tracer 1μM", "value": 1.05}, {"measurement": "NanoBRET Fold Response", "setting": "PTGER3; tracer 0.1μM", "value": 0.94}, {"measurement": "NanoBRET Fold Response", "setting": "PTGER3; tracer 1μM", "value": 1.12}]}
{"molecule": "CC(C)N(CC[C@H](c1ccccc1)c1cc(CCNC(=O)CCOCCOCCOCCOCCNC(=O)CCc2ccc3n2[B-](F)(F)[N+]2=C(c4ccc[nH]4)C=CC2=C3)ccc1O)C(C)C", "note": "[Tolterodine-2-NB590]", "values": [{"measurement": "NanoBRET Fold Response", "setting": "ADORA1; tracer 0.1μM", "value": 0.95}, {"measurement": "NanoBRET Fold Response", "setting": "ADORA1; tracer 1μM", "value": 0.99}, {"measurement": "NanoBRET Fold Response", "setting": "ADORA2B; tracer 0.1μM", "value": 0.81}, {"measurement": "NanoBRET Fold Response", "setting": "ADORA2B; tracer 1μM", "value": 0.97}, {"measurement": "NanoBRET Fold Response", "setting": "PTGER3; tracer 0.1μM", "value": 1.14}, {"measurement": "NanoBRET Fold Response", "setting": "PTGER3; tracer 1μM", "value": 0.99}]}
{"molecule": "CC(C)N(CC[C@H](c1ccccc1)c1cc(CCNC(=O)c2ccc(CNC(=O)CCc3ccc4n3[B-](F)(F)[N+]3=C(c5ccc[nH]5)C=CC3=C4)cc2)ccc1O)C(C)C", "note": "[Tolterodine-BZ-NB590]", "values": [{"measurement": "NanoBRET Fold Response", "setting": "ADORA1; tracer 0.1μM", "value": 1.18}, {"measurement": "NanoBRET Fold Response", "setting": "ADORA1; tracer 1μM", "value": 1.02}, {"measurement": "NanoBRET Fold Response", "setting": "ADORA2B; tracer 0.1μM", "value": 0.67}, {"measurement": "NanoBRET Fold Response", "setting": "ADORA2B; tracer 1μM", "value": 0.73}, {"measurement": "NanoBRET Fold Response", "setting": "PTGER3; tracer 0.1μM", "value": 0.99}, {"measurement": "NanoBRET Fold Response", "setting": "PTGER3; tracer 1μM", "value": 1.07}]}
{"molecule": "CCCn1c(=O)c2[nH]c(-c3ccc(OCC(=O)NCCNC(=O)CCOCCNC(=O)c4ccc(CNC(=O)CCc5ccc6n5[B-](F)(F)[N+]5=C(c7ccc[nH]7)C=CC5=C6)cc4)cc3)nc2n(CCC)c1=O", "note": "[XAC-3-NB590]", "values": [{"measurement": "NanoBRET Fold Response", "setting": "ADORA1; tracer 0.1μM", "value": 10.95}, {"measurement": "NanoBRET Fold Response", "setting": "ADORA1; tracer 1μM", "value": 7.99}, {"measurement": "NanoBRET Fold Response", "setting": "ADORA2B; tracer 0.1μM", "value": 8.09}, {"measurement": "NanoBRET Fold Response", "setting": "ADORA2B; tracer 1μM", "value": 3.98}, {"measurement": "NanoBRET Fold Response", "setting": "PTGER3; tracer 0.1μM", "value": 0.97}, {"measurement": "NanoBRET Fold Response", "setting": "PTGER3; tracer 1μM", "value": 1.05}]}
